Structures can show the parent of a compound that is named as a salt.
Legend:
[1] = target: T1, thromboxane synthase (Homo sapiens, UniProt P24557); assay: Measurement of the thromboxane synthase in washed human platelets; assay type: cell-based; settings: 3H-arachidonic acid, 37° C., 10 min, read-out: IC50 (50% inhibition of thromboxane formation compared to the control)
T1 construct: 1 ml of the platelet suspension and 0.01 ml of the test preparation in 10% DMSO are incubated at 37° C. for 2 min; endogenous in cells; host or cells: washed human platelets from blood of healthy donors
T1 sequence (P24557 1-533): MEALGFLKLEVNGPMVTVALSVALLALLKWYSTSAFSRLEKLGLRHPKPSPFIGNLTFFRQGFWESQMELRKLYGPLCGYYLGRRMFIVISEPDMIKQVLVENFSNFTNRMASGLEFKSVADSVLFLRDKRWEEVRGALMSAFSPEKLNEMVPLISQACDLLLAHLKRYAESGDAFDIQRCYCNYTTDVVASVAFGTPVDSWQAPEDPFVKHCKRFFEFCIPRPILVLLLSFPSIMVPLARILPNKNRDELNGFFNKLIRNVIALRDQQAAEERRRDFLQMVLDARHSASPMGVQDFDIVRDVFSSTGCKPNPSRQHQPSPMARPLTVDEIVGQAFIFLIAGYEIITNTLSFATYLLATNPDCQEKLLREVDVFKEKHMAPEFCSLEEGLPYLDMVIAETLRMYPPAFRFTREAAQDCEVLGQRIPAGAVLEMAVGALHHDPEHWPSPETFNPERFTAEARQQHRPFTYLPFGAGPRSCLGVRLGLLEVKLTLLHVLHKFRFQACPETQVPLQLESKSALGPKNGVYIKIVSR

[2] = tested on: platelet aggregation (platelet-rich citrate plasma, collagen); assay: platelet aggregation-inhibiting action (TAI), collagen-induced, platelet-rich plasma, turbidometric method; assay type: cell-based; settings: Homo sapiens, 0.1 h, range of the minimum effective concentration, PRP, 37° C., result after 6 minutes, read-out: TAI threshold concentration
Description: Blood from healthy subjects of both sexes was used for the determination of the platelet aggregation-inhibiting action. As an anticoagulant, one part of 3.8% strength aqueous sodium citrate solution was admixed to 9 parts of blood. Platelet-rich citrate plasma (PRP)^1 is obtained from this blood by means of centrifugation (Jurgens/Beller, Klinische Methoden der Blutgerinnungsanalyse (Clinical Methods of Blood Coagulation Analysis); Thieme Verlag, Stuttgart, 1959).
For these investigations, 0.8 ml of PRP and 0.1 ml of the active compound solution were preincubated in a water bath at 37° C. The platelet aggregation was then determined by the turbidometric method (Born, G. V. R., J. Physiol. (London), 162, 67, 1962) in an aggregometer at 37° C. (Therapeutische Berichte 47, 80-86, 1975). To this end, 0.1 ml of collagen, an aggregation-inducing agent, was added to the preincubated sample. The change in the optical density in the sample of PRP^1 was recorded during a period of 6 minutes and the results was determined after 6 minutes. To do this, the percentage inhibition is calculated compared to the control.
The range of the minimum effective concentration is given as the threshold concentration.

Row | IC50 [1] | SMILES | minimal effective concentration [2]
1 | 200 nM | O=C(O)CCn1c2c(c3cc(Cc4cccnc4)ccc31)CC(NS(=O)(=O)c1ccc(F)cc1)CC2 (stereo not shown) [Example 11, 9-(2-Carboxyethyl)-3-(4-fluorophenylsulphonamido)-6-(3-pyridyl-methyl)-1,2,3,4-tetrahydro-carbazole hydrochloride] | –
2 | 1000 nM | O=C(O)CCn1c2c(c3cc(CCc4cccnc4)ccc31)CC(NS(=O)(=O)c1ccc(F)cc1)CC2 (stereo not shown) [Example 17] | 0.03 to 0.1 µg/mL
3 | – | O=C(O)CCn1c2c(c3c(Cc4cccnc4)cccc31)CC(NS(=O)(=O)c1ccc(F)cc1)CC2 (stereo not shown) [Example 18] | 0.3 to 1 µg/mL
4 | – | O=C(O)CCn1c2c(c3cc(C(=O)CCc4cccnc4)ccc31)CC(NS(=O)(=O)c1ccc(F)cc1)CC2 (stereo not shown) [Example 20] | 0.03 to 0.1 µg/mL
5 | 100 nM | O=C(O)CCn1c2c(c3ccc(-c4cccnc4)cc31)CC(NS(=O)(=O)c1ccc(F)cc1)CC2 (stereo not shown) [Example 24] | –
6 | – | O=C(O)CCn1c2c(c3cc(OCc4ccccn4)ccc31)CC(N(Cc1ccccn1)S(=O)(=O)c1ccc(F)cc1)CC2 (stereo not shown) [Example 25] | 0.03 to 0.1 µg/mL
